Series [1] concerns NLGN1 5′UTR. Briefly: NLGN translation reporter assay, neuroligin 1. Type of series: cell-based, human. Particulars: FIG. 5: 1 μM Hippuristanol, 1.3 μM compound; FIG. 10: compound 46. As to the method:
The mechanism of action and level of activity of Formula II are consistent with and comparative to a proven translational inhibitor extracted from a rare coral species (Hippuristanol—a proven inhibitor of eIf4A). In this experiment 1 μM of Hippuristanol and 1.3 μM of Formula I was used
FIG. 10—Compound 46, NLGN Translation reporter assay.
Direct evidence is provided that inhibiting eIF4A represents a new route to treating ASD based on the data presented by Gkogkas et al. Nature 2013, 493:371-7.
Treatment with the compound of Formula II (and compound 46) (FIG. 5 and FIG. 10) selectively decrease the firefly luciferase signal from a reporter construct containing the NLGN1 5′UTR upstream of a firefly luciferase gene. The translation of luciferase reporters downstream of the NLGN1 5′UTR has been proven to be dependent on the activity of the translation initiation complex eIF4F (Gkogkas et al Nature 2013, 493:371-7)—a complex containing the helicase eIF4A. Equivalent treatment had little effect on the signal generated from either a co-transfected renilla luciferase reporter control or cells transfected with an equivalent construct containing the NLGN2 5′UTR upstream of a firefly luciferase gene (FIG. 5 and FIG. 10).
Experiments conducted using Firefly luciferase reporter plasmids containing the 5′ untranslated regions (UTRs) of the genes amyloid precursor protein (APP), thioredoxin (TXN) were conducted with reagents and materials described by Bottley et al, 2010. Experiments conducted using Firefly luciferase reporter plasmids containing the 5′ UTRs of the genes EGFR, BACE1 and Actin were conducted with reagents and materials described by Webb, 2012 (http://etheses.nottingham.ac.uk/2724/). […]
Cells were transfected using FuGene 6 (Roche) following the manufacturer's instructions. The activities of firefly and renilla luciferase in lysates prepared from transfected cells were measured using a commercially available Luciferase reporter assay system (Promega) and light emission was measured over a 10 sec interval using a TECAN luminometer. […]

The subject of series [2] is firefly luciferase translation reporter. Briefly: Firefly luciferase translation reporter assay. Type of series: cell-based, human. An excerpt:
Graphs represent 4 biological repetitions per treatment—2 independent treatments of a compound of Formula II.
Graphs represent 4 biological repetitions per treatment. […] No difference is observed between Hippuristanol and Hippuristanol plus a compound of Formula II.
The degree of translation inhibition is shown to be equivalent to that of a known inhibitor of translation, hippuristanol (FIGS. 3b and 5). Comparative structured 5′UTR firefly luciferase reporter experiments conducted using either hippuristanol or a compound of Formula II show the inhibition of reporter levels is equivalent.
Cells were transfected using FuGene 6 (Roche) following the manufacturer's instructions. The activities of firefly and renilla luciferase in lysates prepared from transfected cells were measured using a commercially available Luciferase reporter assay system (Promega) and light emission was measured over a 10 sec interval using a TECAN luminometer. For each experiment described, data was obtained from a minimum of at least 3 biological repetitions per treatment.
For orientation: In a reporter assay the amount or activity of a reporter protein is the signal.

Series [3] relates to white blood cells. Briefly: White blood cells in the primary canine tissue sample. Format: cell-based. Particulars: seen under the microscope, 6 days. An excerpt: Known inhibitors of protein synthesis such as hippuristanol have proven potent anti-cancer properties when used in combination with chemotherapeutic agents such as Cisplatin™ or Doxorubicin™. However hippuristanol is naturally found in coral to is scarce and expensive to obtain, furthermore it is very difficult and expensive to synthesise. […] In particular this combination has a potent effect at slowing proliferation or killing cancer cells. Slow growing and difficult to treat tumour cell types such as A549 lung cancer cells, SH-SY5Y neuroblastoma or SKOV-3 cancer cells are all sensitised by exposure to Formula II to very low doses of Cisplatin™ (FIGS. 4d, 4e, 4f and 7)—a complete kill can be achieved in both A549 and SH-SY5Y cells after a single dose treatment with g quantities of a compound of Formula II in combination with 1 μM or 2.5 μM treatments of Cisplatin™. A similar effect is observed when rapidly growing tumour cell lines or primary tumour cells (FIG. 8) are treated with a compound of Formula II and chemotherapeutics such as Cisplatin™. In this example primary tumour cells were isolated from a dog and then in vitro exposed to the compound of Formula II and Cisplatin™. […]

The subject of series [4] is Neuroblastoma cells (SH-SY5Y). As to the kind of experiment: Polysome profiling (sucrose density). Type of series: cell-based, human. The procedure: Established techniques such as polysome profiling were used to show a reduction in the number of polyribosomes in neuroblastoma cells after treatment with a compound of Formula II. Polysome peaks from left to right show increasing number of ribosomes associated with mRNA. This peaks at 3 ribosomes after treatment with a compound of Formula II showing rapid and reproducible perturbation of translation. Cells were treated for 20 minutes with a compound of Formula II then harvested and prepared as described in materials and methods. The supernatants were loaded onto 10-50% sucrose gradients and spun for 2 hrs at 38,000 RPM. Gradients were visualised using a UV detector.
The number of ribosomes is indicative of the translation of an mRNA and synthesis of the protein encoded by the mRNA, and treatment with the compound of Formula II decreases the number of ribosomes per message thereby reducing global protein synthesis.
Polysome profiles were obtained using sucrose density centrifugation. Briefly one 15 cm plate of cultured Neuroblastoma cells (SH-SY5Y) were grown per treatment to a confluency of 70%. Cells were then treated with either active or equivalent DMSO vehicle control for 20 min. […] Gradients were fractionated and polysome profiles determined through a continuous monitoring at absorbance 260 nm (described previously Johannes et al. 1999).

Consider `CC/C=C\C/C=C\C/C=C\CCCCCCCC(=O)OC[C@H](COC1OC(CO)C(O)C(O)C1O)OC(=O)CCCCCCC/C=C\C/C=C\C/C=C\CC` (stereo partly drawn) [Formula II, 1,2-dioctadecatienyl-3-O-β-D-galactosyl-sn-glycerol], for which, in series [1], the “translation of NLGN1 5′UTR firefly luciferase reporter relative to neuroligin 2” value is “selectively reduces the translation”. Further, the “difference between Hippuristanol and Hippuristanol plus Formula II” value in series [2] (Hippuristanol 1 μM, 4 hrs, FIG. 3c) was “No difference”. Further, in series [2] (Hippuristanol (1 μM) plus Formula II, 4 hrs, FIG. 3c), the “inhibition of translation reporter” value is listed as “significant inhibition”. In addition, the “inhibition of translation reporter activity” value in series [2] (neuroblastoma cells, treated 4 hrs, compound alone, FIG. 3b) is reported as “equivalent to treatment with 1 μM Hippuristanol”. Besides, the “white blood cells after Cisplatin and Formula II treatment” value in series [3] is “still alive”. Also, the “polysome peak, number of ribosomes associated with mRNA” value in series [4] (after treatment, 20 minutes) is reported as 3 ribosomes. In addition, the amount of polyribosomes result in series [4] (cells treated for 20 minutes, 10-50% sucrose gradients) is reported as “reduction in the amount of polyribosomes”.

These data come from patent US11248016B2, “Glycolipids and pharmaceutical compositions thereof for use in therapy” (THE UNIVERSITY OF NOTTINGHAM, priority 2014, dated 2022).
